Structure (SMILES) | melting point [°C]
O=C(O)CCC(CSc1ccc2ccccc2c1)C(=O)O (centres undefined) | 140 to 142
CNc1ccc2c(c1)N(C)C(=O)N(c1ccc(Cl)cc1)S2(=O)=O | 207 to 209
O=C1C(Cl)=C(Cl)C(=O)c2cc(Cl)ccc21 | 148
CN(C)CCCNC1=C2N=c3cc(Cl)ccc3=C2Oc2ccccc2N1C | 156 to 157
Cc1cccc(C)c1Oc1nc(Cl)nc(Oc2c(C)cccc2C)n1 | 161 to 162
COc1cc(OC)nc(C(C(N)=O)c2cccc(Cl)c2)n1 (centres undefined) | 118 to 119
C=CC(O)CCCC(O)CCCC1(C)OCCO1 (centres undefined) | 52 to 54
COc1c(O)c(C(C)=O)c(OC)c2c1OCC2 | 100 to 101
COc1ccc(C2(O)C=CNC(=O)N2)cc1OC1CC2CCC1C2 (centres undefined) | 167 to 169
CCCCCCCCCC(=O)Nc1cc(NC(=O)CCCCCCCCC)cc(C(=O)O)c1 | 208 to 209
CSc1ccc(C(=O)c2ccc(SC)cc2O)cc1 | 113 to 114
O=C1NCN(c2ccccc2)C12CCN(CCCn1c(=O)[nH]c3cc(Cl)c(Cl)cc31)CC2 | 275
Brc1cccc2nc3[nH]c4ccccc4nc-3c12 | > 300
COc1ccc(-c2ccc(C(=O)N3Cc4cccn4Cc4ccccc43)cc2)cc1 | 187 to 189
Fc1ccc2c(c1)[C@H]1N[C@@H](CNC(c3ccccc3)(c3ccccc3)c3ccccc3)C[C@@H]1c1ccccc1C2 | 58 to 60
O=S1(=O)NCN(C2CC2)c2cc(Br)cc(C(F)(F)F)c21 | 200 to 201
COC(=O)c1cc(CO)nn1-c1ncccc1Cl | 104
CCCC(=O)C(Cc1ccc(-c2ccccc2-c2nnn[nH]2)cc1)C(=O)OCC (centres undefined) | 65
CCCCOc1ccc(S(=O)(=O)C2(C(=O)O)CCN(Cc3ccc(C#N)cc3)CC2)cc1 | 242
O=C(O)[C@H](CCc1ccccc1)NS(=O)(=O)c1ccc2c(c1)Cc1ccccc1O2 | 138 to 142

Structure (SMILES) | melting point [°C]
COC(=O)c1cc(NC(=O)C2CCCCC2)c2cc(Cc3ccc(F)cc3)cnc2c1O | 250 to 251
c1ccc(C2(c3ccccc3)SCCS2)cc1 | 104 to 105
CC(C)(C)c1cc(C(C)(C)C)c(O)c(C(=O)Nc2ccc(S(=O)(=O)C(F)(F)F)cc2Cl)c1O | 149 to 150
CCN1CCC(c2nc(-c3ccncc3)c(-c3ccc(F)cc3)[nH]2)CC1 | 242 to 244
CCOCCOc1ccc(-c2ccc3c(c2)C=C(C(=O)O)CCN3S(C)(=O)=O)cc1 | 222 to 225
CC(C)Oc1ccc(C2Cc3ccccc3C(=O)N2C)cc1 (centres undefined) | 115 to 116
CNn1cc(C(=O)O)c(=O)c2cc(F)c(N3CCN(C)CC3)cc21 | 299 to 301
CCOc1ccc(O)c(CC(=O)OC)c1 | 83 to 84
CN(C(=O)N[C@@H](Cc1ccc(Nc2nccc3cnccc23)cc1)C(=O)O)c1ccccc1Cc1ccccc1 | 141
COc1ccc(CN2CCc3cc(O)ccc3C2)cc1OC | 119 to 122
Cc1ccccc1Oc1cc(Cl)ccc1C(=O)O | 158 to 159
COc1ccc(NC(=O)c2c(Cl)cccc2Cl)cc1OC1CCCC1 | 184 to 185
CSc1nnc(N(C(=O)CCl)c2c(C)cccc2C)n1C | 145 to 147
CCNC(=O)c1ccc(N2CCN(Cc3cnc4c(c3)[nH]c(=O)n3cccc43)CC2)c(C)c1 | 255 to 258
COc1nc(C(F)(F)F)c(F)c(=O)n1-c1cc(C(=O)O)c(Cl)cc1F | 199 to 201
COC(=O)c1ccc(-c2nc(-c3ccc4c(c3)C(C)(C)CCC4(C)C)co2)cc1 | 207 to 208
COc1ccccc1NS(=O)(=O)c1ccc(NC2=C(Cl)C(=O)c3ccccc3C2=O)cc1 | 198 to 201
COC(=O)c1cc(-c2ccc(S(C)(=O)=O)cc2)n(-c2ccccc2)n1 | 190 to 193
FC(F)(F)c1ccc(-n2ccc3cnccc32)c(Cl)c1 | 160 to 161
